The record followed here is patent publication US20260070909A1, “GPR65 MODULATORS” (Pathios Therapeutics Limited, priority 2022, published 2026).

One may read the IC50 as the midpoint of a concentration-inhibition curve.

Where only a bound is given, the exact number is not on record here.

For one assay, the target named is human recombinant GPR65 (Homo sapiens, UniProt Q8IYL9). Put plainly: Human GPR65 cAMP HTRF antagonist assay. The class given is cell-based.
human recombinant GPR65, sequence (Q8IYL9 whole entry): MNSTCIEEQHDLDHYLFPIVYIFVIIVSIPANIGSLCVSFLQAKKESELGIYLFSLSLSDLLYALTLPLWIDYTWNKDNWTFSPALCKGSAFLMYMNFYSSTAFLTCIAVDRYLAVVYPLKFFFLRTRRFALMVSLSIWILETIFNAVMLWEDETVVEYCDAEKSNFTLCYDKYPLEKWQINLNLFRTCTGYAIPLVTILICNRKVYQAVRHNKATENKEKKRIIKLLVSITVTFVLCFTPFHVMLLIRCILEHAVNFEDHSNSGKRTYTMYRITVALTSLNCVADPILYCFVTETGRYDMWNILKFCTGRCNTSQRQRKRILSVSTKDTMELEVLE
Details: not given
The source says:
In one preferred embodiment, the compound prevents the increase in cytoplasmic cAMP levels expected following GPR65 activation at acidic pH. This prevention of cAMP accumulation in turn prevents downstream signalling through ICER, as described above. The “Human GPR65 cyclic adenosine monophosphate (cAMP) Homogeneous Time Resolved Fluorescence (HTRF) antagonist assay”, or simply “cAMP assay”, as described in the accompanying examples, can be used to measure the potency of GPR65 modulators, which is expressed as the concentration of compound required to reduce the increase in cAMP concentration upon GPR65 activation by 50% (i.e. an IC50).
Human GPR65 Cyclic Adenosine Monophosphate (cAMP) Homogeneous Time Resolved Fluorescence (HTRF) Antagonist Assay Procedure
IC50 data was obtained by the following procedure:
1321N1 human astrocytoma cells stably expressing human recombinant GPR65 (1321N1-hrGPR65 cells, EuroscreenFast) were cultured according to the vendor's instructions. Compounds were tested for their ability to antagonise GPR65, through measuring the concentration of cytoplasmic cAMP following treatment of the cells at a pH of 7.2 to activate GPR65 signalling and addition of the compound to be tested. The extent to which the expected rise in cAMP concentration upon GPR65 activation was suppressed by the added compound is indicative of its potency. The assay was carried out according to EuroscreenFast assay Methodology as follows.
On the day of the assay, test compounds were added to 384-well, low volume, white microtiter plates by acoustic dispensing. KRH buffer (5 mM KCl, 1.25 mM MgSO4, 124 mM NaCl, 25 mM HEPES, 13.3 mM Glucose, 1.25 mM KH2PO4 and 1.45 mM CaCl2) was adjusted to pH 6.5, pH 7.6 and pH 8.4 by adding NaOH. 1321N1-hGPR65 cells were rapidly thawed and diluted in KRH, pH 7.6 prior to centrifugation at 300×g for 5 min and resuspension in assay buffer (KRH, pH 7.6, supplemented with 1 mM 3-isobutyl-1-methylxanthine (IBMX) and 200 μM ethylenediaminetetraacetic acid (EDTA)). Cells were added to assay plates at a density of 2,000 cells per well in a volume of 5 μl. Assay plates were briefly centrifuged at 100×g and then incubated at room temperature for 30 min. Cells were stimulated by the addition of 5 μL KRH, pH 6.5, to achieve an assay pH of 7.2, while control wells received 5 μl KRH, pH 8.4 to achieve an assay pH of 7.9. Assay plates were briefly centrifuged at 100×g and then incubated at room temperature for 30 min.
Accumulation of cAMP was detected by cAMP HTRF kit (Cisbio). d2-labeled cAMP and cryptate-labeled anti-cAMP antibody in Lysis and Detection Buffer (Cisbio) were added to assay plates, and the plates were incubated at room temperature for 1 h. HTRF measurements were performed using a Pherastar FSX instrument. Acceptor and donor emission signals were measured at 665 nm and 620 nm, respectively, and HTRF ratios were calculated as signal665 nm/signal620 nm×10^4. Data were normalised to high and low control values and fitted with 4-parameter logistic regression to determine hGPR65 IC50 values for the test compounds, which are shown in Table 1.
Background: In TR-FRET formats the signal depends on donor and acceptor labels being close together.
For `O=C1NN=C2C(=CC3CCC2N3C(=O)Nc2cc(Cl)c(C(F)(F)F)cc2F)N1` (racemic) [Compound 1, (±)-N-(5-Chloro-2-fluoro-4-(trifluoromethyl)phenyl)-3-oxo-3,4,6,7,8,9-hexahydro-2H-6,9-epiminocyclohepta[e][1,2,4]triazine-10-carboxamide], the IC50 is below 500 nM.
On the same count and under the same terms, as for `O=C1NN=C2C(=CC3CCC2N3C(=O)Nc2cc(Cl)c(-c3cncc(F)c3)cc2F)N1` (racemic) [Compound 2, (±)-N-(5-Chloro-2-fluoro-4-(5-fluoropyridin-3-yl)phenyl)-3-oxo-3,4,6,7,8,9-hexahydro-2H-6,9-epiminocyclohepta[e][1,2,4]triazine-10-carboxamide], the figure is below 500 nM; as for `O=C1NN=C2C(=CC3CCC2N3C(=O)Nc2cc(Cl)c(-c3ccc(F)nc3)cc2F)N1` (racemic) [Compound 3, (±)-N-(5-chloro-2-fluoro-4-(6-fluoropyridin-3-yl)phenyl)-3-oxo-3,4,6,7,8,9-hexahydro-2H-6,9-epiminocyclohepta[e][1,2,4]triazine-10-carboxamide], below 500 nM; as for `O=C1NN=C2C(=CC3CCC2N3C(=O)Nc2cc(Cl)c(-c3ccc4nonc4c3)cc2F)N1` (racemic) [Compound 4, (±)-N-(4-(benzo[c][1,2,5]oxadiazol-5-yl)-5-chloro-2-fluorophenyl)-3-oxo-3,4,6,7,8,9-hexahydro-2H-6,9-epiminocyclohepta[e][1,2,4]triazine-10-carboxamide], below 500 nM.
Still for that read-out and setting: as for `O=C(Nc1cc(Cl)c(C(F)(F)F)cc1F)N1[C@@H]2C=C3NC(=S)NN=C3[C@H]1CC2` [Compound 7, (6S,9R)-N-(5-Chloro-2-fluoro-4-(trifluoromethyl)phenyl)-3-thioxo-3,4,6,7,8,9-hexahydro-2H-6,9-epiminocyclohepta[e][1,2,4]triazine-10-carboxamide], the figure is below 500 nM.
The same measure, in the same setting: the value for `O=C1NN=C2C(=C[C@@H]3CC[C@H]2N3C(=O)Nc2cc(Cl)c(C(F)(F)F)cc2F)N1` [Compound 8, (6S,9R)-N-(5-Chloro-2-fluoro-4-(trifluoromethyl)phenyl)-3-oxo-3,4,6,7,8,9-hexahydro-2H-6,9-epiminocyclohepta[e][1,2,4]triazine-10-carboxamide] was below 500 nM; that for `CC(C)Oc1ccc(-c2cc(F)c(NC(=O)N3[C@@H]4C=C5NC(=O)NN=C5[C@H]3CC4)cc2Cl)cn1` [Compound 10, (6S,9R)-N-(5-Chloro-2-fluoro-4-(6-isopropoxypyridin-3-yl)phenyl)-3-oxo-3,4,6,7,8,9-hexahydro-2H-6,9-epiminocyclohepta[e][1,2,4]triazine-10-carboxamide] was below 500 nM; that for `O=C1NN=C2C(=C[C@@H]3CC[C@H]2N3C(=O)Nc2cc(Cl)c(-c3ccc(OCC(F)(F)F)nc3)cc2F)N1` [Compound 11, (6S,9R)-N-(5-Chloro-2-fluoro-4-(6-(2,2,2-trifluoroethoxy)pyridine-3-yl)phenyl)-3-oxo-3,4,6,7,8,9-hexahydro-2H-6,9-epiminocyclohepta[e][1,2,4]triazine-10-carboxamide] was below 500 nM.
`O=C1NN=C2C(=C[C@@H]3CC[C@H]2N3C(=O)Nc2cc(Cl)c(-c3ccc4nonc4c3)cc2F)N1` [Compound 13, (6S,9R)-N-(4-(Benzo[c][1,2,5]oxadiazol-5-yl)-5-chloro-2-fluorophenyl)-3-oxo-3,4,6,7,8,9-hexahydro-2H-6,9-epiminocyclohepta[e][1,2,4]triazine-10-carboxamide]: the IC50 is below 500 nM.

Still in this assay, the particulars now being: 1321N1-hrGPR65 cells, assay pH 7.2, suppression of cAMP rise, HTRF; read-out: hGPR65 IC50 (activity class).
`O=C1NN=C2C(=CC3CCC2N3C(=O)Nc2cc(C(F)(F)F)on2)N1` (racemic) [Compound 5, (±)-3-Oxo-N-(5-(trifluoromethyl)isoxazol-3-yl)-3,4,6,7,8,9-hexahydro-2H-6,9-epiminocyclohepta[e][1,2,4]triazine-10-carboxamide]: the IC50 was in the range of 500 to 5000 nM.
In the case of `CS(=O)(=O)c1nnc2c(n1)CC1CCC2N1C(=O)Nc1cc(Cl)c(C(F)(F)F)cc1F` (racemic) [Compound 6, (±)-N-(5-Chloro-2-fluoro-4-(trifluoromethyl)phenyl)-3-(methylsulfonyl)-6,7,8,9-tetrahydro-5H-6,9-epiminocyclohepta[e][1,2,4]triazine-10-carboxamide], the IC50 was in the range of 500 to 5000 nM.
Same read-out and setting: the value for `O=C1NN=C2C(=C[C@H]3CC[C@@H]2N3C(=O)Nc2cc(Cl)c(C(F)(F)F)cc2F)N1` [Compound 9, (6R,9S)-N-(5-Chloro-2-fluoro-4-(trifluoromethyl)phenyl)-3-oxo-3,4,6,7,8,9-hexahydro-2H-6,9-epiminocyclohepta[e][1,2,4]triazine-10-carboxamide] was 500 to 5000 nM; that for `O=C1NN=C2C(=C[C@H]3CC[C@@H]2N3C(=O)Nc2cc(Cl)c(-c3ccc4nonc4c3)cc2F)N1` [Compound 12, (6R,9S)-N-(4-(Benzo[c][1,2,5]oxadiazol-5-yl)-5-chloro-2-fluorophenyl)-3-oxo-3,4,6,7,8,9-hexahydro-2H-6,9-epiminocyclohepta[e][1,2,4]triazine-10-carboxamide] was 500 to 5000 nM.
